Laboratory results reported in patent publication US20240307283A1, “COMPOSITIONS AND METHODS FOR DECREASING PIGMENTATION” (The General Hospital Corporation, priority 2021, published 2024).

What was measured:
[1] = system: primary human melanocytes; assay: Intracellular melanin content of primary human melanocytes with NNT inhibitors; type: cell-based; details: FIG. 10D
Source text: Primary human melanocytes were isolated from normal discarded foreskins and were established in TIVA medium as described previously (Khaled et al., 2010) or in Medium 254 (Life Technologies, #M254500) (Allouche et al., 2015). Human melanoma cell line UACC257 (sex unspecified) was obtained from the National Cancer Institute (NCI), Frederick Cancer Division of Cancer Treatment and Diagnosis (DCTD) Tumor Cell Line Repository. SK-MEL-30 ([…]) human melanoma cell line was from Memorial Sloan Kettering Cancer Center. Both melanoma cell lines have been authenticated by our lab using ATCC's STR profiling service. UACC257 and SK-MEL-30 cells were cultured in DMEM and RPMI medium (Life Technologies, #11875119) respectively, supplemented with 10% fetal bovine serum and 1% penicillin/streptomycin/L-glutamine in a humidified atmosphere of 95% air and 5% CO2 at 37° C.
In vitro culture with NNT inhibitors: 2,3-Butanedione 97% (2,3 BD) (Sigma Aldrich, #B85307) (1 μM, 10 μM, 100 μM, 2 mM), N,N-Dicyclohexylcarbodiimide (DCC) (Sigma Aldrich, #D80002) (1 mM, 2 mM, 10 mM), and Palmitoyl coenzyme A lithium salt (Sigma Aldrich, #P9716) (10 μM, 2 mM) were reconstituted with DMSO (American Type Culture Collection, 4-X).
Melanin quantification: Equal numbers of cells were plated in 6-well plates. The cells were then harvested 72-96 hours post siRNA or NNT inhibitors compounds, as indicated in the legends, pelleted, washed in PBS and counted. 10^6 cells were used for measurement of protein concentration with the Pierce BCA protein assay (Thermo Fisher Scientific, #23225) and 10^6 cells were resuspended in 60 μl of 1 N NaOH solution and incubated at 60° C. for 2 h or until the melanin was completely dissolved. After cooling down to room temperature, samples were centrifuged at 500×g for 10 min and the supernatants were loaded onto a 96-well plate. The melanin content was determined by measuring the absorbance at 405 nm on an Envision plate reader, compared with a melanin standard (0 to 50 μg/ml; Sigma Aldrich, #M8631). Melanin content was expressed as micrograms per milligram of protein.

primary melanocytes = assay: Cell viability of primary melanocytes, different doses; type: cell-based, human; details: FIG. 10C
Protocol: Cell viability assay: Human melanoma cell lines and isolated primary cultured human melanocytes were propagated and tested in early passage (Passages 7 to 9). The effects of NNT inhibitors (2,3BD, DCC, and Palmitoyl coenzyme A lithium salt) on cell viability were evaluated by the CellTiter-Glo Luminescent Cell Viability Assay (Promega, #G7570) and measurement of luminescence was performed on an EnVision 2104 Multilabel Reader (PerkinElmer). Human melanoma cell lines and primary melanocytes were plated on 96-well white plates (10,000 cells/well) and were treated with the NNT inhibitors at the indicated concentrations for 24 h.

human skin = assay: UVB-induced DNA damage (CPD, γ-H2AX) in human skin; type: cell-based; details: 50 mM for 5 days
Protocol: Skin samples considered surgical waste were obtained de-identified from healthy donors (IRB #2013P000093) undergoing reconstructive surgery, according to institutional regulations. Full thickness human abdominal skin explants were cultured in petri dishes with a solid phase and liquid phase phenol red free DMEM medium containing 20% penicillin/streptomycin/glutamine, 5% fungizone (Gibco), and 10% fetal bovine serum. Compounds were applied strictly on top of the explants, making sure no drip occurred into the underlying media. For UV irradiation experiments, a UV lamp (UV Products) was used at 1000 mJ/cm^2 UVB. For immunofluorescence, paraffin sections were deparaffinized by xylene and rehydrated gradually with ethanol to distilled water. Sections were submerged in 0.01 M citrate buffer and boiled for 10 min for retrieval of antigen. The sections were washed with TBST (0.1% Tween 20) and blocked with protein blocking solution (Agilent, #X090930-2) for 1 h at room temperature before application of primary antibody [1:100 diluted in Antibody Diluent (DAKO, #S3022)] and incubation overnight at 4° C. The following day, sections were washed with TBST three times and incubated with secondary antibody Alexa Fluor 647 goat anti-mouse IgG (G+L) (ThermoFisher Scientific, #A-21236), Alexa Fluor 594 F(ab)2 fragment of goat anti-rabbit IgG (G+L) (ThermoFisher Scientific, #A-11072), or Alexa Fluor 555 goat anti-rabbit IgG (ThermoFisher Scientific, #A-21428). After washing, the tissue sections were cover-slipped with mounting medium (SlowFade® Gold Antifade Reagent with DAPI, ThermoFisher Scientific, #S36939). MaxBlock Autofluorescence Reducing Reagent Kit (MaxVision Biosciences, #MB-L) was used to quench skin tissue autofluorescence according to the reagent instructions. […]

zebrafish melanocytes = assay: Chemical treatment of zebrafish, melanocytic brightness; type: in vivo; details: 24 hours, 100 μM 2,3BD or 50 μM DCC
Protocol: Wildtype Tübingen zebrafish were placed in a 24 well plate at 72 hours post-fertilization, with 10 larvae per well for a total twenty larvae per condition. Larvae were treated for 24 hours with either 2,3BD (1 μM, 10 μM, 100 μM, 1 mM; Sigma Aldrich, #B85307), DCC (1 μM, 10 μM, 50 μM, 100 μM; Sigma Aldrich, #D80002), or DMSO (1:500) in E3 embryo medium. At 4 days post fertilization, larvae were imaged using a Nikon SMZ18 Stereomicroscope. Melanocytes from at least 5 zebrafish embryos of each group for each experiment were analyzed using the FIJI software enabling pixel-based color quantification.

Compound: CC(=O)C(C)=O [2,3BD, 2,3-Butanedione]
- intracellular melanin content ([1]; 2.3 BD 2 mM for 72 hours): significantly increased the intracellular melanin content
- melanin on simultaneous treatment with siNNT ([1]; siNNT plus 2,3 BD): did not further increase the melanin
- cell viability (primary melanocytes; different doses, relative to vehicle): no impacts on cell viability
- in vitro toxicity (primary melanocytes; doses up, primary melanocytes): no significant toxicity
- toxicity by γ-H2AX (human skin): non-toxic
- UVB-induced CPD formation (human skin; skin type 2-3, then 1000 mJ/cm^2 UVB): protected against formation of UVB-induced CPD
- UVB-induced γ-H2AX induction (human skin; then UVB): could protect human skin from UVB-induced γ-H2AX induction
- darkening of zebrafish embryos (melanocytic brightness) (zebrafish melanocytes): significant darkening
